Patent publication US11713322B2, “Benzimidazole derivatives as ERBB tyrosine kinase inhibitors for the treatment of cancer” (Capella Therapeutics, Inc., priority 2014, dated 2023)

What was measured:
Format in all cases: cell-based
[1] = system: human epidermal keratinocytes, neonatal, or HEKn cells; assay: Cell proliferation assay, HEKn (wild-type ERBB1); details: Keratinocyte, 72 hrs compound treatment
Method: (§1) The biological activity of a test compound was determined using cell proliferation assays. The activity against wild-type ERBB1 was determined using A431 human epidermoid carcinoma cells (ATCC) and human epidermal keratinocytes, neonatal, or HEKn cells (ATCC).
(§2) A431 cells were grown in DMEM (Invitrogen) supplemented with 10% FBS (Lonza), 1% penicillin-streptomycin, and 2 mM glutamine (Invitrogen). HEKn cells were grown in EPILIFE® (Invitrogen) supplemented with HKGS (Invitrogen). […] Cells were maintained and propagated at 37° C. and 5% CO2 in a humidified cell culture incubator. Aliquots of cells from early passages were preserved for liquid nitrogen storage. Frozen vials of cells were thawed at 37° C. water bath. Cells were spun to remove freezing medium. The newly revived frozen cells were adapted in culture for 10 days before used for compound testing. Cells used in the assay were less than 20 subculture passages or 3 months in culture.
(§3) The test compounds were dissolved in dimethylsulfoxide (DMSO) and stored at −20° C. before testing. […] The cells were placed in a culture incubator overnight. Next day, test compounds in DMSO were added to the cells and placed back in the culture incubator for 72 hrs. In the meantime, the cell numbers at time zero of the compound treatment (T0) was measured by EnerCount (Codex BioSolutions). At the end of the compound treatment, the cell numbers were again measured by EnerCount as T72 values. The untreated controls (Ctrl) were cell numbers recorded from the 0.1% DMSO treatment. The percent growth inhibition by the test compound was calculated by the formula: (1−(T72−T0)/(Ctrl−T0))×100.
(§4) The results are summarized in Tables 1 and 2, wherein A represents a value no greater than 500 nM, B represents a value greater than 500 nM but no greater than 1 μM, C represents a value greater than 1 μM but no greater than 5 μM, and D represents a value greater than 5 μM; and wherein A′ represents a ratio of greater than 10, B′ represents a ratio of no greater than 10 but no less than 5, C′ represents a ratio of no greater than 5 but no less than 2, and D′ represents a ratio of no greater than 2.

[2] = system: H1975 human NSCLC adenocarcinoma cells; assay: Cell proliferation assay, H1975 (drug-resistant mutant ERBB1, T790M/L858R); details: for GI50: Homo sapiens, NCI-H1975, 72 hrs compound treatment
Method: as §1, §2, §3, §4

[3] = system: HCC827 human NSCLC adenocarcinoma cells; assay: Cell proliferation assay, HCC827 (mutant ERBB1, exon 19 deletion); details: for GI50: Homo sapiens, HCC827, 72 hrs compound treatment
Method: as §1, §2, §3, §4

[4] = system: A431 human epidermoid carcinoma cells; assay: Cell proliferation assay, A431 (wild-type ERBB1); details: A-431, 72 hrs compound treatment, class symbols
Method: as §1, §2
as §3, with “(1−(T72−T0)/(Ctrl−T0))×100. […]” for “(1−(T72−T0)/(Ctrl−T0))×100.”

Row | SMILES | GI50 ([1]; numeric values, unit inferred) | GI50 ([2]; numeric values, unit inferred) | Selectivity Ratio (Wild-type ERBB1/Mutant ERBB1) HEKn/H1975 ([2]; ratio of GI50 HEKn/H1975) | GI50 ([3]; numeric values, unit inferred) | Selectivity Ratio (Wild-type ERBB1/Mutant ERBB1) HEKn/HCC827 ([3]; ratio of GI50 HEKn/HCC827) | GI50 ([1]; class symbols) | GI50 ([2]; class symbols) | GI50 ([3]; class symbols) | GI50 [4]
1 | C=CC(=O)Nc1cccc(Nc2nc(Nc3ccc(N4CCN(C(C)=O)CC4)cc3OC)ncc2C(F)(F)F)c1 [CO-1686, reference compound] | 2.5 µM | 0.109 µM | A′ (A′ represents a ratio of greater than 10) | 0.032 µM | A′ (A′ represents a ratio of greater than 10) |  |  |  | 
2 | C=CC(=O)N1CCCC[C@@H](n2c(NC(=O)c3ccnc(OC)c3)nc3ccc4c(c32)OCCO4)C1 [C2, (R)—N-(1-(1-acryloylazepan-3-yl)-7,8-dihydro-1H-[1,4]dioxino[2′,3′:3,4]benzo[1,2-d]imidazol-2-yl)-2-methoxyisonicotinamide] |  |  |  |  |  | 1 to 5 µM | < 0.5 µM | < 0.5 µM | 1 to 5 µM
3 | C=CC(=O)N1CCCC[C@@H](n2c(NC(=O)c3ccnc(C)c3)nc3ccc4c(c32)OCCO4)C1 [C1, (R)—N-(1-(1-acryloylazepan-3-yl)-7,8-dihydro-1H-[1,4]dioxino[2′,3′:3,4]benzo[1,2-d]imidazol-2-yl)-2-methylisonicotinamide] |  |  |  |  |  | 1 to 5 µM | < 0.5 µM | < 0.5 µM | 1 to 5 µM
4 | C=CC(=O)N1CCCC[C@@H](n2c(NC(=O)c3ccnc(C(F)(F)F)c3)nc3ccc4c(c32)OCCO4)C1 [B1, (R)—N-(1-(1-acryloylazepan-3-yl)-7,8-dihydro-1H-[1,4]dioxino[2′,3′:3,4]benzo[1,2-d]imidazol-2-yl)-2-(trifluoromethyl)isonicotinamide] |  |  |  |  |  | > 5 µM | < 0.5 µM | < 0.5 µM | 1 to 5 µM
